Laboratory results: ChEMBL document CHEMBL1201862, “PubChem BioAssay data set” (2004)
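Dose response: 5 concentrations. Exposure: 48 h. Format: 96-well plates. Endpoint: linear interpolation; highest concentration if not reached. Abbreviation: GI50, concentration required for 50% inhibition of growth.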 Calls of active or inactive are those of the source. Rule as the data show it: active = GI50 up to about 1.1 µM and inactive = higher.

Experiments:
Experiment in all cases: NCI anticancer screen, dose series, 48 h
ACHN = system: ACHN
CCRF-CEM = system: CCRF-CEM
COLO 205 = system: COLO 205
HCT-15 = system: HCT-15
KM12 = system: KM12
NCI-H23 = system: NCI-H23
OVCAR-8 = system: OVCAR-8
RPMI-8226 = system: RPMI-8226
RXF 393 = system: RXF 393
SK-MEL-2 = system: SK-MEL-2
SN12C = system: SN12C
SNB-19 = system: SNB-19
SNB-75 = system: SNB-75
SW-620 = system: SW-620
TK-10 = system: TK-10
UO-31 = system: UO-31
MCF7 = system: MCF7
NCI/ADR-RES = system: NCI/ADR-RES

Structure (SMILES) | GI50 (ACHN) | GI50 (CCRF-CEM) | GI50 (COLO 205) | GI50 (HCT-15) | GI50 (KM12) | GI50 (NCI-H23) | GI50 (OVCAR-8) | GI50 (RPMI-8226) | GI50 (RXF 393) | GI50 (SK-MEL-2) | GI50 (SN12C) | GI50 (SNB-19) | GI50 (SNB-75) | GI50 (SW-620) | GI50 (TK-10) | GI50 (UO-31) | GI50 (MCF7) | GI50 (NCI/ADR-RES)
Cc1c(C(=O)CC(=O)C(=O)Nc2c(C(C)C)cccc2C(C)C)[n+]([O-])c2ccccc2[n+]1[O-] | 2.52 µM (inactive) | 2.34 µM (inactive) | 3.76 µM (inactive) | 2.79 µM | 3.47 µM (inactive) | 13.2 µM (inactive) | 2.57 µM (inactive) | 3.18 µM (inactive) | 13.5 µM (inactive) | 11.4 µM (inactive) | 3.15 µM (inactive) | 7.73 µM (inactive) | 14.4 µM (inactive) | 3.87 µM (inactive) | 26.1 µM (inactive) | 16.6 µM (inactive) | – | –
CC12CC3CC/C(=N\O)C(C1)C3(N1CCOCC1)C/C2=N/O (stereo unspecified) | > 100 µM (inactive) | > 100 µM (inactive) | > 100 µM (inactive) | > 100 µM | > 100 µM (inactive) | > 100 µM (inactive) | > 100 µM (inactive) | – | > 100 µM (inactive) | > 100 µM (inactive) | > 100 µM (inactive) | > 100 µM (inactive) | 25.1 µM (inactive) | > 100 µM (inactive) | – | > 100 µM (inactive) | > 100 µM (inactive) | > 100 µM (inactive)
CCOP(=O)(O)C(C)(C)NC | > 100 µM (inactive) | > 100 µM (inactive) | > 100 µM (inactive) | > 100 µM | > 100 µM (inactive) | > 100 µM (inactive) | > 100 µM (inactive) | > 100 µM (inactive) | > 100 µM (inactive) | > 100 µM (inactive) | > 100 µM (inactive) | > 100 µM (inactive) | – | > 100 µM (inactive) | > 100 µM (inactive) | > 100 µM (inactive) | – | > 100 µM (inactive)
SC1=NC2=C(CSC/C2=C\c2ccc(Cl)cc2)C(c2ccc(Cl)cc2)N1 (stereo unspecified) | 40 µM (inactive) | 24.7 µM (inactive) | 17.3 µM (inactive) | 34 µM | 25.9 µM (inactive) | 46.9 µM (inactive) | 39.2 µM (inactive) | 37 µM (inactive) | – | 34.2 µM (inactive) | 33.2 µM (inactive) | 44.3 µM (inactive) | – | 41.3 µM (inactive) | 36.6 µM (inactive) | 32.4 µM (inactive) | 30.8 µM (inactive) | 38.1 µM (inactive)
O=C1OC(C(O)CO)C(O)=C1O (stereo unspecified) | > 100 µM (inactive) | > 10 µM (inactive) | > 100 µM (inactive) | > 100 µM | > 100 µM (inactive) | > 100 µM (inactive) | > 100 µM (inactive) | 49.2 µM (inactive) | – | > 100 µM (inactive) | > 100 µM (inactive) | > 100 µM (inactive) | 99.8 µM (inactive) | > 100 µM (inactive) | > 100 µM (inactive) | > 100 µM (inactive) | > 100 µM (inactive) | > 100 µM (inactive)
O=C(O)CCSC(=O)Nc1ccccc1F | > 100 µM (inactive) | > 100 µM (inactive) | > 100 µM (inactive) | > 100 µM | > 100 µM (inactive) | > 100 µM (inactive) | – | > 100 µM (inactive) | > 100 µM (inactive) | > 100 µM (inactive) | > 100 µM (inactive) | > 100 µM (inactive) | – | > 100 µM (inactive) | > 100 µM (inactive) | > 100 µM (inactive) | – | –
CC1(CO)COC(C)(C)OC1 | > 100 µM (inactive) | > 100 µM (inactive) | > 100 µM (inactive) | > 100 µM | > 100 µM (inactive) | > 100 µM (inactive) | > 100 µM (inactive) | – | > 100 µM (inactive) | – | > 100 µM (inactive) | > 100 µM (inactive) | > 100 µM (inactive) | > 100 µM (inactive) | > 100 µM (inactive) | > 100 µM (inactive) | > 100 µM (inactive) | > 100 µM (inactive)
